# Results: patent publication US6727245B2, “Heterobicyclic derivatives” (Fujisawa Pharmaceutical Co., Ltd., priority 1994, dated 2004)
row,melting point,SMILES
1,227 to 232 °C,O=C(Nc1cccc(-n2c(=O)c(Cc3cccnc3)nc3cccnc32)c1)Oc1ccccc1
2,143 to 153 °C (dec.),"COc1ccccc1NC(=O)Nc1cccc(-n2c(=O)c(CCC(=O)O)nc3cccnc32)c1 [Example 16(12), 2-(2-Carboxyethyl)-3-oxo-4-[3-[3-(2-methoxyphenyl)-ureido]phenyl]-3,4-dihydropyrido[2,3-b]pyrazine]"
3,220 to 221 °C,"COc1ccccc1NC(=O)Nc1cccc(-n2c(=O)c(Cc3ccc(O)cc3)nc3cccnc32)c1 [Example 16(13), 2-(4-Hydroxyphenylmethyl)-3-oxo-4-[3-[3-(2-methoxyphenyl)ureido]phenyl]-3,4-dihydropyrido-[2,3-b]pyrazine]"
4,200 to 208 °C (dec.),"COc1ccccc1NC(=O)Nc1cccc(-n2c(=O)c(Cc3ccccc3[N+](=O)[O-])nc3cccnc32)c1 [Example 16(14), 2-(2-Nitrophenylmethyl)-3-oxo-4-[3-[3-(2-methoxyphenyl)ureido]phenyl]-3,4-dihydropyrido[2,3-b]pyrazine]"
5,264 to 269 °C (dec.),"CC(=O)Nc1cccc(-n2c(=O)c(CCC(=O)O)nc3cccnc32)c1 [Example 16(15), 4-(3-Acetamidophenyl)-2-(2-carboxyethyl)-3-oxo-3,4-dihydropyrido[2,3-b]pyrazine]"
6,212 to 214 °C,"CCOc1ccc2nc(Cc3ccccc3)c(=O)n(-c3cccc(NC(C)=O)c3)c2n1 [Example 16(16), 4-(3-Acetamidophenyl)-2-benzyl-6-ethoxy-3-oxo-3,4-dihydropyrido[2,3-b]pyrazine]"
7,235 to 237 °C,"COc1ccccc1NC(=O)Nc1cccc(-n2c(=O)c(CCC(=O)ON3C(=O)CCC3=O)nc3cccnc32)c1 [Example 23, 4-[3-[3-(2-methoxyphenyl)ureido]-phenyl]-3-oxo-2-[2-succinimidooxycarbonylethyl)-3,4-dihydropyrido[2,3-b]pyrazine]"
8,242 to 245 °C,"COc1ccccc1NC(=O)Nc1cccc(-n2c(=O)c(CCC(=O)N(C)C)nc3cccnc32)c1 [Example 24, 2-[2-(N,N-dimethylcarbamoyl)ethyl]-3-oxo-4-[3-[3-(2-methoxyphenyl)-ureido]phenyl]-3,4-dihydropyrido[2,3-b]pyrazine]"
9,175 °C,"CCOC(=O)CCc1nc2cccnc2n(-c2cccc(NC(=O)Nc3ccccc3OC)c2)c1=O [Example 33, 2-(2-ethoxycarbonylethyl)-3-oxo-4-[3-[3-(2-methoxyphenyl)-ureido]phenyl]-3,4-dihydropyrido[2,3-b]pyrazine]"
10,161 to 163 °C,"CCCOC(=O)CCc1nc2cccnc2n(-c2cccc(NC(=O)Nc3ccccc3OC)c2)c1=O [Example 34(1), 4-[3-[3-(2-Methoxyphenyl)ureido]phenyl]-3-oxo-2-(2-propyloxycarbonylethyl)-3,4-dihydropyrido[2,3-b]-pyrazine]"
11,194 to 196 °C,"COC(=O)CCc1nc2cccnc2n(-c2cccc(NC(=O)Nc3ccccc3OC)c2)c1=O [Example 34(2), 2-(2-Methoxycarbonylethyl)-3-oxo-4-[3-[3-(2-methoxyphenyl)ureido]phenyl]-3,4-dihydropyrido-[2,3-b]pyrazine]"
12,195 to 197 °C,"COc1ccccc1NC(=O)Nc1cccc(-n2c(=O)c(CCC(=O)N3CCN(C)CC3)nc3cccnc32)c1 [Example 35, 4-[3-[3-(2-methoxyphenyl)ureido]phenyl]-2-[2-(4-methylpiperazin-1-yl)carbonylethyl]-3-oxo-3,4-dihydropyrido[2,3-b]pyrazine]"
13,209 to 212 °C,"COC(=O)[C@@H]1CCCN1C(=O)CCc1nc2cccnc2n(-c2cccc(NC(=O)Nc3ccccc3OC)c2)c1=O [Example 36, 4-[3-[3-(2-Methoxyphenyl)ureido]phenyl]-3-oxo-2-[2[(2S)-2-methoxycarbonylpyrrolidin-1-yl]carbonylethyl]-3,4-dihydropyrido[2,3-b]pyrazine]"
14,264 to 268 °C,"O=C(Nc1ccc(F)c(-n2c(=O)c(Cc3cccnc3)nc3cccnc32)c1)c1ccc2ccccc2c1 [Example 41(20), 4-[2-Fluoro-5-(2-naphthoylamino)phenyl]-2-(3-pyridylmethyl)-3-oxo-3,4-dihydropyrido[2,3-b]pyrazine]"
15,155 to 156 °C,"O=c1c(Cc2cccnc2)nc2cccnc2n1-c1cccc(-c2ccc3ccccc3c2)c1 [Example 43, 4-[3-(2-naphthyl)phenyl]-2-(3-pyridylmethyl)-3-oxo-3,4-dihydropyrido[2,3-b]pyrazine]"
16,238 to 239 °C,"COc1ccccc1NC(=O)Nc1cccc(-n2c(=O)c(Cc3ccccc3)nc3cccnc32)c1 [Example 45(6), 2-Benzyl-4-[3-[3-(2-methoxyphenyl)ureido]phenyl]-3-oxo-3,4-dihydropyrido[2,3-b]pyrazine]"
17,165 to 166 °C,"N#Cc1cccn1-c1cccc(-n2c(=O)c(Cc3ccccc3)nc3cccnc32)c1 [Example 45(7), 2-Benzyl-4-[3-(2-cyanopyrrol-1-yl)phenyl]-3-oxo-3,4-dihydropyrido[2,3-b]pyrazine]"
18,197 to 198 °C,"O=c1c(Cc2ccccc2)nc2cccnc2n1-c1cccc(-c2nc3ccccc3s2)c1 [Example 45(8), 2-Benzyl-4-[3-(benzothiazol-2-yl)phenyl]-3-oxo-3,4-dihydropyrido[2,3-b]pyrazine]"

row,melting point,SMILES
1,154 to 155 °C,"O=C(c1ccccc1)c1cccc(-n2c(=O)c(Cc3ccccc3)nc3cccnc32)c1 [Example 45(9), 2-Benzyl-4-(3-benzoylphenyl)-3-oxo-3,4-dihydropyrido[2,3-b]pyrazine]"
2,125 to 127 °C,"O=c1c(Cc2ccccc2)nc2cccnc2n1-c1cccc(C(F)(F)F)c1 [Example 45(10), 2-Benzyl-4-(3-trifluoromethylphenyl)-3-oxo-3,4-dihydropyrido[2,3-b]pyrazine]"
3,157 to 159 °C,"CC(=O)c1cn(-c2cccc(-n3c(=O)c(Cc4ccccc4)nc4cccnc43)c2)c2ccccc12 [Example 45(11), 2-Benzyl-4-[3-(3-acetylindol-1-yl)phenyl]-3-oxo-3,4-dihydropyrido[2,3-b]pyrazine]"
4,208 to 210 °C,"COC(=O)c1cccc(-n2c(=O)c(Cc3cccnc3)nc3cccnc32)c1 [Example 45(12), 4-(3-Methoxycarbonylphenyl)-2-(3-pyridylmethyl)-3-oxo-3,4-dihydropyrido[2,3-b]pyrazine]"
5,128 to 130 °C,"O=c1c(Cc2cccnc2)nc2cccnc2n1-c1cccc(-n2cccc2)c1 [Example 45(13), 4-[3-(1-Pyrrolyl)phenyl]-2-(3-pyridylmethyl)-3-oxo-3,4-dihydropyrido[2,3-b]pyrazine]"
6,88 to 90 °C,"O=c1c(Cc2cccnc2)nc2cccnc2n1-c1cccc(C(F)(F)F)c1 [Example 45(14), 4-(3-Trifluoromethylphenyl)-2-(3-pyridylmethyl)-3-oxo-3,4-dihydropyrido[2,3-b]pyrazine]"
7,212 to 214 °C,"CC(=O)Nc1ccc(F)c(-n2c(=O)c(Cc3cccnc3)nc3cccnc32)c1 [Example 45(15), 4-(5-Acetamido-2-fluorophenyl)-2-(3-pyridylmethyl)-3-oxo-3,4-dihydropyrido[2,3-b]pyrazine]"
8,142 to 143 °C,"O=C(c1ccccc1)c1cccc(-n2c(=O)c(Cc3cccnc3)nc3cccnc32)c1 [Example 45(16), 4-(3-Benzoylphenyl)-2-(3-pyridylmethyl)-3-oxo-3,4-dihydropyrido[2,3-b]pyrazine]"
9,153 to 156 °C,"CC(=O)c1cn(-c2cccc(-n3c(=O)c(Cc4cccnc4)nc4cccnc43)c2)c2ccccc12 [Example 45(17), 4-[3-(3-Acetylindol-1-yl)phenyl]-2-(3-pyridylmethyl)--3-oxo-3,4-dihydropyrido[2,3-b]pyrazine]"
10,166 to 168 °C,"O=c1c(Cc2cccnc2)nc2cccnc2n1-c1cccc(-n2ccc3ccccc32)c1 [Example 45(18), 4-[3-(1-Indolyl)phenyl]-2-(3-pyridylmethyl)-3-oxo-3,4-dihydropyrido[2,3-b]pyrazine]"
11,162 to 165 °C,"O=c1c(Cc2cccnc2)nc2cccnc2n1-c1cccc(-c2cccc3ccccc23)c1 [Example 45(19), 4-[3-(1-Naphthyl)phenyl]-2-(3-pyridylmethyl)-3-oxo-3,4-dihydropyrido[2,3-b]pyrazine]"
12,168 to 170 °C,"Nc1cccc(-n2c(=O)c(Cc3cccnc3)nc3cccnc32)c1 [Example 46, 4-(3-aminophenyl)-2-(3-pyridylmethyl)-3-oxo-3,4-dihydropyrido[2,3-b]pyrazine]"
13,177 to 179 °C,"Nc1ccc(F)c(-n2c(=O)c(Cc3cccnc3)nc3cccnc32)c1 [Example 47, 4-(5-Amino-2-fluorophenyl)-2-(3-pyridylmethyl)-3-oxo-3,4-dihydropyrido[2,3-b]pyrazine]"
14,146 to 149 °C,"O=C(Nc1ccc(F)c(-n2c(=O)c(Cc3cccnc3)nc3cccnc32)c1)Nc1ccccc1F [Example 50(1), 4-[2-Fluoro-5-[3-(2-fluorophenyl)ureido]phenyl]-2-(3-pyridylmethyl)-3-oxo-3,4-dihydropyrido[2,3-b]pyrazine]"
15,152 to 155 °C,"COc1ccccc1NC(=O)Nc1ccc(F)c(-n2c(=O)c(Cc3cccnc3)nc3cccnc32)c1 [Example 50(2), 4-[2-Fluoro-5-[3-(2-methoxyphenyl)ureido]phenyl]-2-(3-pyridylmethyl)-3-oxo-3,4-dihydropyrido[2,3-b]pyrazine]"
16,188 to 189 °C,"O=C(Nc1cccc(-n2c(=O)c(Cc3cccnc3)nc3cccnc32)c1)Nc1ccccc1[N+](=O)[O-] [Example 50(3), 4-[3-[3-(2-Nitrophenyl)ureido]phenyl]-2-(3-pyridylmethyl)-3-oxo-3,4-dihydropyrido[2,3-b]pyrazine]"
17,163 to 169 °C,"COc1ccccc1NC(=O)Nc1cccc(-n2c(=O)c(Cc3cccnc3)nc3cccnc32)c1 [Example 50(4), 4-[3-[3-(2-Methoxyphenyl)ureido]phenyl]-2-(3-pyridylmethyl)-3-oxo-3,4-dihydropyrido[2,3-b]pyrazine]"
18,228 to 231 °C,"COc1ccc2cc(-c3cccc(-n4c(=O)c(Cc5cccnc5)nc5cccnc54)c3)ccc2c1 [Example 54(24), 4-[3-(6-Methoxy-2-naphthyl)phenyl]-2-(3-pyridylmethyl)-3-oxo-3,4-dihydropyrido[2,3-b]pyrazine]"
